What was measured:
[1] = target: T1, human GLP1R (hGLP1R) (Homo sapiens, UniProt P43220); assay: Human GLP1R cAMP agonist assay (GloSensor); type: cell-based; conditions: HEK293-SNAP-hGLP1R-GloSensor cells; for Emax: cAMP, normalized to GLP1(7-36) maximum response, read-out: Emax mean; for EC50: intracellular cAMP, mean n=3 where SEM is given
Outline: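 HEK293 cells stably expressing SNAP-tagged hGLP1R and the GloSensor-22F cAMP luciferase biosensor, pre-loaded 2 h with substrate, then exposed 12 min at rt to compound (30–0.06 μM, 0.5 mM IBMX, 0.1% BSA). Luminescence normalized to 2 nM GLP1(7-36); EC50 and Emax from 4-parameter logistic fit.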

[2] = target: T1, human GLP1R (hGLP1R); assay: Human GLP1R β-arrestin recruitment assay (PathHunter); type: cell-based; set-up: insert synthesized by GeneArt 93-0164 (cells); 93-0491 (vector bundle); conditions: CHO-hGLP1R-β-arrestin cells; for EC50: mean n=2, read-out: Beta-Arrestin assay EC50 Mean; for Emax: relative to GLP1(7-36), read-out: Beta-Arrestin assay Emax
Experimental: Compounds 1 to 31 were tested in the following cellular assays that measure the intracellular cAMP concentration, beta-arrestin recruitment and receptor internalization. The cAMP is generated by the activation of GLP1R. The cAMP data obtained is shown in Table 1 (where S.E.M. is included, mean n=3 independent experiments+/−S.E.M). Beta-arrestin is recruited upon activation of GLP1R and the data obtained are shown in Table 2 (mean n=2 independent experiments, +/−S.D). The extent to which the GLP1R is internalized into the cell and away from the plasma membrane following activation is also shown in Table 2 (mean n=2 independent experiments, +/−S.D). EC50 for each assay is defined as the concentration of the compound that leads to half of the maximum response (after baseline correction). Emax is defined as the maximum response observed for the test compound, normalized to the maximum response observed for the endogenous ligand (GLP1(7-36)) to GLP1R.
The extent to which agonists recruited β-arrestin was measured using the PathHunter® β-arrestin assay (DiscoverX). This assay measures binding of β-arrestin to the receptor using an enzyme complementation approach. […] When β-arrestin is recruited to the receptor the enzyme becomes active and generates luminescence in the presence of a chemiluminescent substrate (PathHunter® Detection Kit, DiscoverX cat #93-0001). Luminescence can be measured on a relevant detector. CHO-hGLP1R-β-arrestin cells stably overexpressing hGLP1R with Prolink tag and β-arrestin with EA tag were seeded at 20 μL per well in white 384-well poly-D-Lysine coated plates (Greiner Bio One, cat #781945) in Plating Reagent 2 (DiscoverX, cat #93-0563R2A), and incubated overnight at 37° C., 5% CO2 with humidity. The following day, agonists were prepared at 5 times the final required concentration. To generate triplicate dose response curves, compounds were serially diluted 3-fold in assay buffer (HBSS, 10 mM Hepes and 0.1% BSA), then added to the cell assay plate to a final volume of 25 μL and final top concentrations starting at 30 μM. In the same plate and assay buffer as the tested compounds, were EC100 control wells containing GLP1 (7-36) peptide (Bachem, cat #H-6795) at a final concentration of 1 μM and also EC0 control wells containing no compound. The plate was incubated at 37° C., 5% CO2 with humidity for 2 h after adding the compounds to the cells. Then the detection reagent was prepared (19 parts cell assay buffer, 5 parts substrate reagent 1 and 1 part substrate reagent 2 as per manufacturers recommendations, DiscoverX cat #93-0001), and 12 μL were added per well to the cell assay plate. The plate was incubated for an additional hour in the dark at RT. Luminescence was then measured with an Envision 2104 Multilabel reader with “TRF Light Unit, 337 nm” (Perkin Elmer) using the Ultra-Sensitive protocol setting “384-well US luminescence detector” with the 384-well luminescence aperture, 0.1 sec per well. β-arrestin recruitment was calculated and expressed as percent of the GLP1 (7-36) EC100 control wells: [(sample signal−mean EC0 signal)/(mean EC100 of GLP1 (7-36) signal−mean EC0 signal)]*100 using Microsoft Excel. Curve fitting for EC50 determinations was performed using GraphPad Prism. The 4-parameter logistic model, Hill slope was used: Y=Bottom+(Top−Bottom)/(1+10^((Log EC50−X)*Hill Slope)), where Y is the functional response; X is the compound concentration; bottom is A0 or the minimum value (at 0 dose); top is Ainf or the maximum value (at infinite dose); EC50 is the point of inflection (i.e. the point on the sigmoid shaped curve halfway between A0 and Ainf). The EC50 value was calculated in μM. Emax is the maximal activity detected within the concentration range, derived from the fitted curve relative to GLP1(7-36). […]

T1 sequence (P43220 24-463): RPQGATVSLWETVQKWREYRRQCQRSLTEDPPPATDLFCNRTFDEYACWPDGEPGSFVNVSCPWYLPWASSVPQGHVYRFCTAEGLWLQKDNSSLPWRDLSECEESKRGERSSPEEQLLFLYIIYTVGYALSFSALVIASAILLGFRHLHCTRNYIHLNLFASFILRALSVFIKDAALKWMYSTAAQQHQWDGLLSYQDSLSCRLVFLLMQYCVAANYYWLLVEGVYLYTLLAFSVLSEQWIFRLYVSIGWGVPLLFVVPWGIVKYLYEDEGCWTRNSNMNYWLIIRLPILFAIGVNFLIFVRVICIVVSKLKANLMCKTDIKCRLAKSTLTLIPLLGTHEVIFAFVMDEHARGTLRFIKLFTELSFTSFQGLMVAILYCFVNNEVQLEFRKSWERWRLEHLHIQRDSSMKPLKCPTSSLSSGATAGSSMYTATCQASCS

Row | Structure (SMILES) | Emax [1] [%] | EC50 [1] [nM] | EC50 [2] [nM] | Emax [2] [%]
1 | C[C@]1(c2ccc(Cl)cc2F)Oc2cccc(C3CCN(Cc4nc(C(F)(F)F)c(C(=O)O)n4C[C@@H]4CCO4)CC3)c2O1 [Compound C-7, 2-((4-((S)-2-(4-chloro-2-fluorophenyl)-2-methylbenzo[d][1,3]dioxol-4-yl)piperidin-1-yl)methyl)-1-(((S)-oxetan-2-yl)methyl)-4-(trifluoromethyl)-1H-imidazole-5-carboxylic acid] | 109 | 0.847 | > 30000 | 2
2 | Cc1nc(CN2CCC(c3cccc4c3O[C@@](C)(c3ccc(Cl)cc3F)O4)CC2)n(C[C@@H]2CCO2)c1/C=C/C(=O)O [Compound C-5, (E)-3-(2-((4-((S)-2-(4-chloro-2-fluorophenyl)-2-methylbenzo[d][1,3]dioxol-4-yl)piperidin-1-yl)methyl)-4-methyl-1-(((S)-oxetan-2-yl)methyl)-1H-imidazol-5-yl)acrylic acid] | 110 | 0.0129 | 404 | 12
3 | C[C@]1(c2ccc(Cl)cc2F)Oc2cccc(C3CCN(Cc4nc(/C=C/C(=O)O)cn4C[C@@H]4CCO4)CC3)c2O1 [Compound C-2, (E)-3-(2-((4-((S)-2-(4-chloro-2-fluorophenyl)-2-methylbenzo[d][1,3]dioxol-4-yl)piperidin-1-yl)methyl)-1-(((S)-oxetan-2-yl)methyl)-1H-imidazol-4-yl)acrylic acid] | 109 | 2.23 | > 30000 | 0
4 | C[C@]1(c2ccc(Cl)cc2F)Oc2cccc(C3CCN(Cc4ncc(/C=C/C(=O)O)n4C[C@@H]4CCO4)CC3)c2O1 [Compound C-1, (E)-3-(2-((4-((S)-2-(4-chloro-2-fluorophenyl)-2-methylbenzo[d][1,3]dioxol-4-yl)piperidin-1-yl)methyl)-1-(((S)-oxetan-2-yl)methyl)-1H-imidazol-5-yl)acrylic acid] | 111 | 0.0197 | 494 | 9

Source: patent US20240182456A1, “2-((4-((S)-2-(4-CHLORO-2-FLUOROPHENYL)-2-METHYLBENZO[D][1,3]DIOXOL-4-YL)PIPERIDIN-1-YL)METHYL)-1-(((S)-OXETAN-2-YL)METHYL)-1H-IMIDAZOLE DERIVATIVES AS ACTIVATORS OF THE GLP1 RECEPTOR FOR THE TREATMENT OF OBESITY” (Novartis AG, priority 2021, published 2024)
